These results are taken from publication PMC11820944, “Safirinium Fluorescent “Click” Molecular Probes: Synthesis, CuAAC Reactions, and Microscopic Imaging” (Molecules, 2025).

One series has as its system CHO-K1 cells. As to the kind of experiment: Cellular uptake and distribution by fluorescence (confocal) microscopy. The series is classed as cell-based, Chinese hamster. The conditions noted are these: 10 µM, 30 min. The procedure: Figure 6 Cellular uptake and intracellular distribution of selected probes (1 and 6) and triazole derivatives (11, 12, 13, and 15) in Chinese hamster ovary cells. CHO-K1 cells were cultured overnight and then incubated with the tested compounds (10 μM). Representative images (100× magnification) illustrating intracellular distribution of the compounds in CHO-K1 cells were captured after 30 min of incubation with the tested compounds. Scale bar = 20 μm.
CHO-K1 cells were seeded at a density of 2 × 10^5/well in 12-well plates containing cover slips at the bottom and cells were incubated for 24 h. Then, cells were fixed in 3.7% formaldehyde in PBS for 10 min in 37 °C, washed twice with PBS, and stained with compound solution (10 µM) for 30 min. After this time, the cells were rinsed 2 times with Gibco FluoroBrite DMEM and a coverslip was placed on a stock carrier with drops of culture medium. Finally, slides were mounted in ProLong™ Glass Antifade Mountant and visualized under an A1 confocal system built on a Nikon Eclipse Ti-E microscope (Japan) equipped with 405 and 561 nm diode lasers and a Plan Apo 100×/1.4 Oil DIC objective.

Series [1] in a line: Fluorescence emission spectra and quantum yields (comparative method). The settings on record: for λ Emission: 1·10^-6 mol/dm^3, 365 nm excitation; for Fluorescence Quantum Yield: against A1 standard. The series is classed as physicochemical. The protocol: Fluorescence spectra were recorded using a Hitachi F-70000 spectrofluorimeter (P VWR-Hitachi, Japan), for 1 × 10^−6 mol/dm^3 solutions of the compounds in water and acetonitrile, at 365 nm excitation wavelength, using 5 nm excitation and 2.5 nm emission slits, and 700 V photomultiplier voltage. The spectra (Figures S2 and S4) were recorded in 400–700 nm range. The 1 × 10^−6 mol/dm^3 solutions were prepared by 100-fold dilution of the solutions used for absorption measurement.
Quantum yields of fluorescence (Table 1) were determined using the comparative method, from Formula (1), using the recorded absorption and emission spectra and diethyl Safirinium P zwitterion A1 (ϕ = 0.755 in water) as standard.(1) Φ=ΦstdFAstdnstd2/FstdAn^2 where ϕ, ϕstd—quantum yields; F, Fstd—integrals under fluorescence emission curves; A, Astd—absorbance at excitation wavelength, and n, nstd—refractive indices, for the compound and standard (std subscript), respectively.

A further series in a line: in vitro. The series is classed as cell-based. The settings on record: Chinese hamster. The text has this:
(§1) CHO-K1 cell line was derived as a subclone from the parental CHO cell line, which was initiated from a biopsy of an ovary of an adult, female Chinese hamster commercially available in ATCC (CCL-61™). NIH-3T3 cell line was obtained from DSMZ, the German Collection of Microorganisms and Cell Cultures. CHO-K1 and NIH-3T3 cells were cultivated in F-12K Medium (ATCC 30-2004) and Dulbecco’s MEM with Glutamax™ 1 Medium (Gibco, Paisley, UK), respectively. Culture media were supplemented with fetal bovine serum (FBS, Gibco, Thermo Fisher Scientific, Waltham, MA, USA) to a final concentration of 10% and antibiotic to final concentration of 1% (pent/strept, Gibco, Thermo Fisher Scientific, Waltham, MA, USA). Cells were cultured in standard culture conditions (5% CO2, 37 °C, 95% humidity).
Cell viability was determined by the 3-(4,5-dimethylthiazol-2-yl)-2,5-diphenyltetrazolium bromide (MTT, Sigma Aldrich, Burlington, MA, USA) assay. […] The absorbance was measured at 570 nm (SpectraMax® iD3, Molecular Devices, San Jose, CA, USA) and the experiment was performed two times in duplicates. Cells viability was expressed as a percentage of viability (in comparison to non-treated cells normalized to 100%). Data were analyzed using GraphPad Prism Software (GraphPad Software, Inc., San Diego, CA, USA, version 10.3.1).

The nature of series [2]: MTT cell viability assay, NIH-3T3 cells. The series is classed as cell-based. The conditions noted are these: mouse, 24 h incubation, read-out: IC50 (cytotoxicity, cell viability).
Text: as §1
Cell viability was determined by the 3-(4,5-dimethylthiazol-2-yl)-2,5-diphenyltetrazolium bromide (MTT, Sigma Aldrich, Burlington, MA, USA) assay. Cells were seeded into 96-well plates at density of 2 × 10^4 cell/well and cultured in the presence of compounds (1–4, 6–9, 11–13, and 15) at concentration range 1.56–100 µM for 24 h. The MTT reagent (final concentration 0.5 mg/mL) was added to each well for 3 h, and then formazan crystals were dissolved in DMSO. The absorbance was measured at 570 nm (SpectraMax® iD3, Molecular Devices, San Jose, CA, USA) and the experiment was performed two times in duplicates. Cells viability was expressed as a percentage of viability (in comparison to non-treated cells normalized to 100%). Data were analyzed using GraphPad Prism Software (GraphPad Software, Inc., San Diego, CA, USA, version 10.3.1).
On the technique in general: Tetrazolium assays rely on reduction of a dye to a coloured formazan, in cell work by metabolically active cells.

A short description of series [3]: Chemical stability of aqueous solution in daylight, RP-HPLC with fluorescence detection. It counts as physicochemical. The text has this: To assess the chemical stability of Safirinium-based alkyne probes for RP-HPLC analysis, we developed a preliminary RP-HPLC method with fluorescent detection for the alkyne probe 1. This was accomplished using an LC-PCN column and a simple isocratic elution approach. Subsequently, we prepared a 10^−6 M aqueous solution of probe 1 and kept it exposed to natural daylight on a laboratory bench for 7 days. […] Assuming pseudo-first-order kinetics, it can be calculated that probe 1 can remain stable (95%) under such conditions for 12 h.
RP-HPLC analyses with fluorescence detection (Method B) were performed on a LaChrom Elite HPLC system, (VWR-Hitachi, Japan), equipped with a L-2130 pump, a L-2485 FL detector, a L-2350 column oven, and an L-2200 autosampler, the system was controlled with EZChrom Elite version 3.2, Agilent software. Separations were performed on a SUPELCOSIL LC-PCN 250 × 4.6 mm column with 5 µm grain size, under 1 mL/min isocratic elution with 50:50 v/v water: acetonitrile mixture, acidified with 0.1% formic acid. Injection volume was 20 µL; 10^−6 mol/dm^3 solution of probe 1 in water was prepared in a clear HPLC sample vial and analyzed directly after preparation and after 7 days (168 h) of standing on a lab bench, exposed to natural daylight at room temperature. Example chromatograms are presented in the electronic supporting information.

On the set-up of series [4]: method as in PMID 23893376. The conditions noted are these: in water; cited from earlier work.

As to `CCCCCCCCCCCCCCn1cc(CNC(=O)C2=C(C)C=C(C)N3C[N+](CC)(CC)N=C23)nn1.[Br-]` [Compound 11, 2,2-Diethyl-5,7-dimethyl-8-(((1-tetradecyl-1H-1,2,3-triazol-4-yl)methyl)carbamoyl)-2,3-dihydro-[1,2,4]triazolo[4,3-a]pyridin-2-ium bromide], the “Cellular uptake and intracellular distribution” value with CHO-K1 cells is “capable of entering the cytoplasm of the cells; however, they did not penetrate the nuclei”. Besides, in series [1] (Acetonitrile), the “λ Emission” value is recorded as 443 nm and the “Fluorescence Quantum Yield” value is recorded as 0.86. In addition, in series [1] (H2O), the “λ Emission” value is reported as 446 nm and the “Fluorescence Quantum Yield” value amounted to 0.28.
One may read the IC50 as the concentration that gives 50% inhibition. Regarding `C#CCNC(=O)C1=Cc2ccccc2N2C[N+](CCCCCCCC)(CCCCCCCC)N=C12` [Compound 4, 2,2-Dioctyl-4-(prop-2-yn-1-ylcarbamoyl)-1,2-dihydro-[1,2,4]triazolo[4,3-a]quinolin-2-ium bromide], the IC50 at 24 h in the series “in vitro” is 17.3 µM; in series [2], 8.7 µM.
In the same order, the values of `CCCCCCCC[N+]1(CCCCCCCC)CN2C(=N1)C(C(=O)NCCCCCN=[N+]=[N-])=Cc1ccccc12` [Compound 9, 4-((5-Azidopentyl)carbamoyl)-2,2-dioctyl-1,2-dihydro-[1,2,4]triazolo[4,3-a]quinolin-2-ium bromide] are 11 µM and 13 µM.
With `CC[N+]1(CC)CN2C(=N1)C(C(=O)NCCCCCN=[N+]=[N-])=Cc1ccccc12.[Br-]` [Compound 8, 4-((5-Azidopentyl)carbamoyl)-2,2-diethyl-1,2-dihydro-[1,2,4]triazolo[4,3-a]quinolin-2-ium bromide], the results for the “λ Emission” value in series [1] (Acetonitrile) and in series [1] (H2O) were 452 nm and 459 nm, respectively. Moreover, the figures for the “Fluorescence Quantum Yield” value in series [1] (Acetonitrile) and in series [1] (H2O) were 0.68 and 0.60, respectively.
The matching figures for `C#CCNC(=O)C1=Cc2ccccc2N2C[N+](CC)(CC)N=C12.[Br-]` [Compound 3, 2,2-Diethyl-4-(prop-2-yn-1-ylcarbamoyl)-1,2-dihydro-[1,2,4]triazolo[4,3-a]quinolin-2-ium bromide]: 455 nm, 462 nm, 0.71 and 0.62.
Regarding `CC[N+]1(CC)CN2C(C)=CC(C)=C(C(=O)NCCCCCN=[N+]=[N-])C2=N1.[Br-]` [Compound 6, 8-((5-Azidopentyl)carbamoyl)-2,2-diethyl-5,7-dimethyl-2,3-dihydro-[1,2,4]triazolo[4,3-a]pyridin-2-ium bromide], the “Cellular uptake and intracellular distribution” value in the series with CHO-K1 cells is “capable of entering the cytoplasm of the cells; however, they did not penetrate the nuclei”.
Consider `C#CCNC(=O)C1=C(C)C=C(C)N2C[N+](CCCCCCCC)(CCCCCCCC)N=C12` [Compound 2, 5,7-Dimethyl-2,2-dioctyl-8-(prop-2-yn-1-ylcarbamoyl)-2,3-dihydro-[1,2,4]triazolo[4,3-a]pyridin-2-ium bromide], for which, in series [2], the IC50 at 24 h is 17.5 µM.
The term half-life denotes how long it takes for the measured level to halve. Regarding `C#CCNC(=O)C1=C(C)C=C(C)N2C[N+](CC)(CC)N=C12.[Br-]` [Compound 1, 2,2-Diethyl-5,7-dimethyl-8-[(prop-2-yn-1-yl)carbamoyl]-2H,3H-[1,2,4]triazolo [4,3-a]pyridin-2-ium bromide], the “Cellular uptake and intracellular distribution” value in the series with CHO-K1 cells is recorded as “capable of entering the cytoplasm of the cells; however, they did not penetrate the nuclei”. The compound further gave a half-life in series [3] (10^-6 M aqueous solution exposed to natural daylight) of roughly 168 h. Also, in series [3] (10^-6 M aqueous solution, natural daylight, room temperature, 7 days), the “RP-HPLC peak area decrease” value stood at 50%. Besides, the “Time of remaining stable (95%)” value in series [3] (aqueous solution exposed to daylight, assuming pseudo-first-order kinetics) stood at 12 h. Moreover, in series [1] (Acetonitrile), the “λ Emission” value is 443 nm and the “Fluorescence Quantum Yield” value is given as 0.86. Further, in series [1] (H2O), the “λ Emission” value was found to be 446 nm and the “Fluorescence Quantum Yield” value worked out at 1.00.
Consider `CC[N+]1(CC)CN2C(=N1)C(C(=O)NCc1cn(C3CC(n4cc(C)c(=O)[nH]c4=O)OC3CO)nn1)=Cc1ccccc12` (stereo not shown) [Compound 13, 4-(((1-((2-(hydroxymethyl)-5-(5-methyl-2,4-dioxo-1,2,3,4-tetrahydropyrimidin-1-yl)oxolan-3-yl)-1H-1,2,3-triazol-4-yl)methyl)carbamoyl)-2,2-diethyl-1,2-dihydro-[1,2,4]triazolo[4,3-a]quinolin-2-ium bromide], for which the “Cellular uptake and intracellular distribution” value in the series with CHO-K1 cells is on record as “capable of entering the cytoplasm of the cells; however, they did not penetrate the nuclei”. Further, in series [1] (Acetonitrile), the “λ Emission” value is on record as 452 nm and the “Fluorescence Quantum Yield” value is 0.45. In addition, in series [1] (H2O), the “λ Emission” value is given as 462 nm and the “Fluorescence Quantum Yield” value is 0.59.
Regarding `CC[N+]1(CC)CN2C(=N1)C(C(=O)NCc1cn(C3O[C@H](COC(C)=O)[C@@H](OC(C)=O)[C@H](OC(C)=O)[C@H]3OC(C)=O)nn1)=Cc1ccccc12.[Br-]` (stereo partly drawn) [Compound 12, 2,2-Diethyl-4-(((1-((3R,4S,5R,6R)-3,4,5-triacetoxy-6-(acetoxymethyl)tetrahydro-2H-pyran-2-yl)-1H-1,2,3-triazol-4-yl)methyl)carbamoyl)-1,2-dihydro-[1,2,4]triazolo[4,3-a]quinolin-2-ium bromide], the “Cellular uptake and intracellular distribution” value in the series on CHO-K1 cells was “capable of entering the cytoplasm of the cells; however, they did not penetrate the nuclei”.
As to `CCCCCCCC[N+]1(CCCCCCCC)CN2C(C)=CC(C)=C(C(=O)NCCCCCN=[N+]=[N-])C2=N1` [Compound 7, 8-((5-Azidopentyl)carbamoyl)-5,7-dimethyl-2,2-dioctyl-2,3-dihydro-[1,2,4]triazolo[4,3-a]pyridin-2-ium bromide], the IC50 at 24 h in series [2] is 26.4 µM.
Take `CC[N+]1(CC)CN2C(=N1)C(C(=O)NCCCCCn1cc(CO)nn1)=Cc1ccccc12.[Br-]` [Compound 15, 2,2-Diethyl-4-({5-[4-(hydroxymethyl)-1H-1,2,3-triazol-1-yl]pentyl}carbamoyl)-1H,2H-[1,2,4]triazolo[4,3-a]quinolin-2-ium bromide]: the “Cellular uptake and intracellular distribution” value in the series with CHO-K1 cells is reported as “capable of entering the cytoplasm of the cells; however, they did not penetrate the nuclei”. In addition, the “λ Emission” value in series [1] (Acetonitrile) was 454 nm; in series [1] (H2O) it was 459 nm. Besides, the “Fluorescence Quantum Yield” value in series [1] (Acetonitrile) is on record as 0.53; in series [1] (H2O), 0.55.
Regarding `CC[N+]1(CC)CN2C(C)=CC(C)=C(C(=O)[O-])C2=N1` [Compound A1], in series [4], the “Fluorescence quantum yield (ϕ) of standard” value is recorded as 0.755.
